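Five concentrations, 48 hours, 96-well plates. The concentration for 50% growth inhibition is given as GI50. TGI denotes the concentration required for complete inhibition of growth.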
Columns and labels:
Assay in all cases: NCI tumour cell line growth inhibition, 48 h
786-0 renal = test system: 786-0 renal
ACHN renal = test system: ACHN renal
CCRF-CEM leukemia = test system: CCRF-CEM leukemia
HOP-62 NSCLC = test system: HOP-62 NSCLC
HOP-92 NSCLC = test system: HOP-92 NSCLC
M14 melanoma = test system: M14 melanoma
MDA-MB-435 = test system: MDA-MB-435
SK-MEL-2 melanoma = test system: SK-MEL-2 melanoma
TK-10 renal = test system: TK-10 renal
UO-31 renal = test system: UO-31 renal

| Compound | GI50 (786-0 renal) [µM] | TGI (786-0 renal) [µM] | GI50 (ACHN renal) [µM] | TGI (ACHN renal) [µM] | GI50 (CCRF-CEM leukemia) [µM] | TGI (CCRF-CEM leukemia) [µM] | GI50 (HOP-62 NSCLC) [µM] | TGI (HOP-62 NSCLC) [µM] | GI50 (HOP-92 NSCLC) [µM] | TGI (HOP-92 NSCLC) [µM] | GI50 (M14 melanoma) [µM] | TGI (M14 melanoma) [µM] | GI50 (MDA-MB-435) [µM] | TGI (MDA-MB-435) [µM] | GI50 (SK-MEL-2 melanoma) [µM] | TGI (SK-MEL-2 melanoma) [µM] | GI50 (TK-10 renal) [µM] | TGI (TK-10 renal) [µM] | GI50 (UO-31 renal) [µM] | TGI (UO-31 renal) [µM] |
| --- | --- | --- | --- | --- | --- | --- | --- | --- | --- | --- | --- | --- | --- | --- | --- | --- | --- | --- | --- | --- |
| COC(=O)[C@@H](C)C[C@H](Cc1ccccc1)NC(=O)c1nc([C@@H](C[C@H](C(C)C)N(C)C(=O)[C@@H](NC(=O)[C@H]2C[C@H](O)CCN2C)C(C)C)OC(C)=O)sc1C(C)C | 0.0337 | 4.65 | 0.101 | > 11.1 | 0.00525 | > 11.1 | 0.0315 | > 11.1 | 0.00491 | 7.05 | 0.0149 | 1.24 | < 0.00111 | 0.00288 | 0.00318 | > 11.1 | 0.319 | > 11.1 | 0.504 | > 11.1 |
| COc1ccc2c(c1)[C@@H](NC(C)=O)CCc1cc(OC)c(OC)c(OC)c1-2 |  | > 100 |  | > 100 |  | > 100 |  | > 100 |  | > 9.04 |  | > 22.6 |  | 0.0244 |  | > 21.5 |  | > 100 |  | > 100 |
| CC(=O)OCC1C(=O)OCC1C(=O)N1Cc2cc3ccccc3nc2C1 (stereo unspecified) |  | 3.84 |  | 3.39 |  | 3.79 |  | 32.7 |  | 3.77 |  | 3.67 |  | 11.9 |  | 22.9 |  | 4.17 |  | 8.15 |
| N#CCCNc1nonc1-c1nc2ccccc2n1CC(=O)c1ccc(N)cc1 | 0.0417 | > 100 | 0.0362 | > 100 | 0.029 | > 100 | 0.0432 | > 100 | < 0.01 | 0.456 | 0.0249 | > 100 | < 0.01 | < 0.0166 | 0.498 |  |  | > 90.9 | 0.282 | > 100 |
| Cn1cc(-c2ccc3nc(-c4ccc(CC(=O)Nc5cc(C(C)(C)C)no5)cc4)cnc3c2)cn1 | 0.0375 | > 3 | 0.0144 | > 3 | 0.692 | > 3 | 0.0465 | > 3 | 0.0495 | > 3 | 0.0172 | > 3 | 0.0505 | > 3 | 0.0237 | 0.581 | 0.0139 | > 3 | 0.0521 | 0.269 |
| CN(C)CCNC(=O)c1cc2c3cc(Cl)ccc3[nH]c2c2ncccc12 | 4.83 | 18.1 | 1.62 | 6.98 | 2.09 | 5.47 | 5.85 | 19.1 | 2.36 | 11.2 | 1.7 | 3.68 | 1.95 | 4.22 | 4.2 | 20.1 | 3.81 | 13.4 | 1.1 | 2.49 |
| CCCCn1c(=O)[nH]c(N)c([C@@H]2c3c([nH]c(=O)n(CCCC)c3=O)Oc3ccc4ccccc4c32)c1=O | 2.04 | 4.41 | 1.8 | 3.59 | 0.326 | 1.38 | 1.5 | 4.72 | 2 | 6.5 | 1.92 | 4.2 | 1.7 | 3.11 | 2.51 | 7.34 | 2.95 | 7.05 | 1.35 | 2.69 |
| C=CC1(C)CCC2C(=CCC3C2(C)CC(O)C(O)C3(C)COC2OC(CO)C(O)C(O)C2O)C1 (stereo unspecified) |  | > 100 |  | > 100 |  | > 100 |  |  |  | > 100 |  | > 100 |  | > 100 |  | > 100 |  | > 100 |  | > 100 |
| CCN(Cc1ccc(OC)cc1)c1ccc(CO)c(Cl)c1 | 10.6 | 45.4 | 19.3 | > 81.5 | 23.9 | > 83.3 | 2.05 | 29.4 | 2.17 | 20.7 | 16.1 | 58.3 | 16.7 | 43.6 | 3.79 | 20.2 |  |  | 6.18 | 39.6 |
| CC1=C(CCCOC(=O)[C@H](N)CC(C)C)C2=C(C)C3(CC3)[C@@](C)(O)C(=O)C2=C1 | 2.84 | 11.4 |  |  | 22.9 | > 100 | 1.61 | 5.42 | 0.759 | 3.33 | 1.67 | 4.41 | 3.28 | 27.6 | 1.91 | 3.89 | 2.88 | 7.92 | 1.42 | 4.32 |
| C/C(=C\C(=O)O[C@H]1[C@@H]2[C@H](C)CC[C@H]2[C@]2(C)O[C@@]1(C1CCCCC1)C[C@H]2OC(=O)CO)c1ccccc1 | 5.11 | 10.6 | 0.0147 | 6.02 | 7 | 15.3 | 7 | 13 | 2.07 | 8.09 | 7.95 | 18.1 | 6.84 | 12.9 | 7.05 | 13.4 | 7.6 | 14.7 |  |  |

— PubChem BioAssay (NCI)
